In patent publication US20250034118A1, “ANTIMALARIAL HEXAHYDROPYRIMIDINE DERIVATIVES” (UCB BIOPHARMA SRL, priority 2021, published 2025):
Structures can show the parent of a compound that is named as a salt. Where two headings read alike, the source gives them in different places.

Tested on: Plasmodium falciparum 3D7 strain
Test: P. falciparum 3D7 asexual blood stage assay (SYBR green readout)
Format: cell-based
From the text: The compounds of the present invention are potent inhibitors of the growth and propagation of the Plasmodium falciparum parasite in human blood.
The assay used to measure the effect of test compounds on a bloodstream stage of Plasmodium falciparum 3D7 strain employs SYBR green as the readout. This is a dye that binds to double stranded deoxyribonucleic acid (DNA) with a resulting increase in fluorescence, allowing detection of P. falciparum DNA in infected erythrocytes, and thereby providing a measure of parasite growth and propagation.
Erythrocytes (A+ blood) were prepared for both parasite culture and assay by washing 4 times with incomplete media (15.9 g RPMI 1640 (25 mM HEPES, L-glutamine), 1 g NaHCO3, 2 g glucose, 400 μL gentacin (500 mg/mL), 2 mL hypoxanthine solution (13.6 g/L in 0.1M NaOH pH 7.3) in 1 litre of media). The cells were centrifuged at 1800 g for 5 minutes, before decanting the supernatant and re-suspending in fresh incomplete media. On the final wash, the cells were re-suspended in complete media (incomplete media with 5 g/L AlbumaxII), and centrifuged at 1800 g for 3 minutes. This cell sediment was treated as 100% haematocrit.
P. falciparum 3D7 was cultured in erythrocytes at 5% haematocrit in complete media at 37° C. (1% O2, 3% CO2, balance N2). […]
On day 5, fluorescent signal was measured using a BioTek plate reader (excitation 485 nm, emission 528 nm). […]

| Compound | IC50 (3D7, Erythrocyte, 72 h) [nM] | IC50 (Erythrocyte, P. falciparum 3D7 in erythrocytes, 5% haematocrit, 0.5% parasitaemia, 72 h incubation, SYBR green fluorescence, read-out: IC50) [nM] |
| --- | --- | --- |
| CO[C@H]1C[C@@H](N2C(=N)N[C@](C)(c3cccc(NC(=O)c4cncn4CC(F)(F)F)c3Cl)CC2=O)CCC1(F)F (relative stereo) [Example 2, N-(2-Chloro-3-{(4S)-1-[(1S*, 3S*)-4,4-difluoro-3-methoxycyclohexyl]-2-imino-4-methyl-6-oxohexahydropyrimidin-4-yl}phenyl)-3-(2,2,2-trifluoroethyl)imidazole-4-carboxamide hydrochloride] | 4.2 | – |
| C[C@@H]1C[C@H](N2C(=N)N[C@](C)(c3cccc(NC(=O)c4cncn4CC(F)(F)F)c3Cl)CC2=O)CCC1(F)F [Example 1, N-(2-Chloro-3-{(4S)-1-[(1R,3R)-4,4-difluoro-3-methylcyclohexyl]-2-imino-4-methyl-6-oxohexahydropyrimidin-4-yl}phenyl)-3-(2,2,2-trifluoroethyl)imidazole-4-carboxamide] | – | 5 |
